Laboratory results reported in patent publication US20070167492A1, “Molluscicidal agents” (priority 2003, published 2007).

What was measured:
Type in all cases: in vivo
[1] = system: Deroceras reticulatum (grey field slug); experiment: Example 2: pot re-test, treated winter wheat seed with 5 adult slugs per pot, 7 days
Description: Based on the results of the experiment described in Example 1, a selection was made from the various test numbers of that experiment for re-testing, partly to confirm the conclusions of that experiment and to test the unexpected outcome of some test compounds.
The selection of test numbers (Test No.) used in the present experiment relative to those of the experiment described in Example 1 is shown in Table 7.
The same seeds as described in Example 1 were sown in earthenware pots with an internal diameter of 20 cm and a height of 18 cm, filled with 7 cm of potting soil (Trio BV, Weesp, The Netherlands) and with a top 2 cm of white quartz sand. A total of 40 winter wheat seeds was placed in each pot, in a pattern of concentric circles on top of the quartz sand, the germ of the seed facing upwards. To each pot a total of 5 adult specimens of the test slug Deroceras reticulatum (grey field slug) were added. The pots were incubated at 18-19° C. with a relative humidity of ±95% and light regime of ±18 hours light/6 hours dark, without artificial lighting. The pots were not irrigated overhead. In total, 4 parallel tests were performed for each test.
The number of damaged seeds was, the number of plants present (germinated and not eaten or damaged by the slugs), the number of dead slugs and of the number of fecal pellets were determined after 2, 3 and 7 days following the addition of the slugs.
(§1) The data were statistically analysed by using F-tests (α=0.05) and pair-wise Student-tests.

[2] = system: Winter wheat (Kampa race) seeds; experiment: Seed germination test of treated winter wheat seeds (rolled in paper); conditions: 3x50 seeds, 6 days at 22° C.
Procedure: (§2) Winter wheat (Kampa race; thousand grain weight of 51 grams) was used in an experiment to test the efficacy of the compositions of the present inventions in relation to known molluscicidal compounds. The seeds were disinfected for soil and germ moulds with 2 ml of Beret Gold (comprising 25 g/l of the fungicide fludioxonil) per kg of seed.
(§3) Sepiret® was added to all dry disinfections, and is the coating that was added to all agents of which the formulation was not suitable for coating.
Table 2 provides an overview of the amounts of diluent water and Sepiret® used for treating the wheat seeds. Table 2 further provides the quality of the coating and the percentages of germinating seeds in a seed germination test. In this test, the percentage of germination of 3×50 seeds, rolled in paper, was determined after 6 days at 22° C. (continuously) and a 16 hours light regime.

[3] = system: Deroceras reticulatum (grey field slug); experiment: Example 1: pot test, treated winter wheat seed with 5 adult slugs per pot, 14 days
Procedure: as §2, §3
The seeds were sown in earthenware pots with an internal diameter of 20 cm and a height of 18 cm, filled with 7 cm of potting soil (Trio BV, Weesp, The Netherlands) and with a top 2 cm of white quartz sand. A total of 40 seeds was placed in each pot, in a pattern of concentric circles on top of the quartz sand, the germ facing upwards. To each pot a total of 5 adult specimens of the test slug Deroceras reticulatum (grey field slug) were added. The pots were incubated at ±15° C. with a relative humidity of ±90% and light regime of ±12 hours light/12 hours dark, without artificial lighting. The pots were not irrigated overhead. In total, 4 parallel tests were performed for each test.
Following the addition of the slugs, the number of damaged seeds was counted after 2, 3, 7, 10 and 14 days. The number of plants present (germinated and not eaten or damaged by the slugs) was determined 3, 7, 10 and 14 days after the start of the test. […] The number of dead slugs was counted 2, 3, 7, 10 and 14 days after the start of the test (but not removed). Finally, on days 3, 7, 10 and 14 after the start of the test, the number fecal pellets was counted.
as §1

[4] = Example 2, 2 ml formulated per kg seed, 2 days after sowing
[5] = Example 2, 2 ml formulated per kg seed, 3 days after sowing
[6] = Example 2, 2 ml formulated per kg seed, 7 days after sowing
[7] = Example 2, 4 ml formulated per kg seed, 2 days after sowing
[8] = Example 2, 4 ml formulated per kg seed, 3 days after sowing
[9] = Example 2, 4 ml formulated per kg seed, 7 days after sowing
[10] = Example 2, after 2, 3 and 7 days
[11] = 2 ml formulated per kg seed, 2 days after sowing
[12] = 2 ml formulated per kg seed, 3 days after sowing
[13] = 2 ml formulated per kg seed, 7 days after sowing
[14] = 2 ml formulated per kg seed, 10 days after sowing
[15] = 2 ml formulated per kg seed, 14 days after sowing
[16] = 4 ml formulated per kg seed, 2 days after sowing
[17] = 4 ml formulated per kg seed, 3 days after sowing
[18] = 4 ml formulated per kg seed, 7 days after sowing
[19] = 4 ml formulated per kg seed, 10 days after sowing
[20] = 4 ml formulated per kg seed, 14 days after sowing
[21] = 8 ml formulated per kg seed, 2 days after sowing
[22] = 8 ml formulated per kg seed, 3 days after sowing
[23] = 8 ml formulated per kg seed, 7 days after sowing
[24] = 8 ml formulated per kg seed, 10 days after sowing
[25] = 8 ml formulated per kg seed, 14 days after sowing

CNC(=O)Oc1cc(C)c(SC)c(C)c1 [methiocarb, 4-methylthio-3,5-xylyl methylcarbamate]
dead slugs observed during the course of the experiment ([1]; Example 2): More dead slugs | result of seed treatment against slugs (conclusion) ([1]; Example 2): fairly food protection of the seeds against slugs | percentage of damaged seeds after 7 days ([1]; Example 2, 2 ml formulated per kg seed): 14% | Mean number of damaged seeds per pot [1, 4]: 2.5 | Mean number of dead slugs per pot [1, 4]: 0.3 | Mean number of damaged seeds per pot [1, 5]: 4.8 | Mean number of dead slugs per pot [1, 5]: 0.5 | Mean number of damaged seeds per pot [1, 6]: 5.5 | Mean number of dead slugs per pot [1, 6]: 2.3 | percentage of damaged seeds after 7 days ([1]; Example 2, 4 ml formulated per kg seed): 9% | Mean number of damaged seeds per pot [1, 7]: 1.8 | Mean number of dead slugs per pot [1, 7]: 0 | Mean number of damaged seeds per pot [1, 8]: 2.0 | Mean number of dead slugs per pot [1, 8]: 1.8 | Mean number of damaged seeds per pot [1, 9]: 3.5 | Mean number of dead slugs per pot [1, 9]: 3.3 | number of fecal pellets per pot relative to the untreated control [1, 10]: significant reduction in the number of fecal pellets | plants present relative to the untreated seed [1, 10]: significantly more plants present | number of damaged seeds relative to the untreated seed ([1]; Example 2, two days after the start): significant reduction in the number of damaged seeds | Mean number of fecal pellets per pot ([1]; dosage 2 ml, 2 days): 1 | Mean number of plants present per pot ([1]; dosage 2 ml, 2 days): 9.0 | Mean number of fecal pellets per pot ([1]; dosage 2 ml, 3 days): 9 | Mean number of plants present per pot ([1]; dosage 2 ml, 3 days): 22.5 | Mean number of fecal pellets per pot ([1]; dosage 2 ml, 7 days): 20 | Mean number of plants present per pot ([1]; dosage 2 ml, 7 days): 34.0 | number of utilizable plants after 7 days ([1]; dosage 2 ml, 7 days): 26.8 | Mean number of fecal pellets per pot ([1]; dosage 4 ml, 2 days): 2 | Mean number of plants present per pot ([1]; dosage 4 ml, 2 days): 28.3 | Mean number of fecal pellets per pot ([1]; dosage 4 ml, 3 days): 7 | Mean number of plants present per pot ([1]; dosage 4 ml, 3 days): 33.3 | Mean number of fecal pellets per pot ([1]; dosage 4 ml, 7 days): 11 | Mean number of plants present per pot ([1]; dosage 4 ml, 7 days): 34.5 | number of utilizable plants after 7 days ([1]; dosage 4 ml, 7 days): 32.5 | Percentage germinated ([2]; 2 ml formulated per kg seed): 61% | Percentage germinated ([2]; 4 ml formulated per kg seed): 63% | Percentage germinated ([2]; 8 ml formulated per kg seed): 27% | number of utilizable plants after 14 days ([3]; 2 ml formulated per kg seed): 15.5 | percentage of damaged seeds after 14 days ([3]; 2 ml formulated per kg seed): 44% | Mean number of damaged seeds per pot [3, 11]: 2.0 | Mean number of dead slugs per pot [3, 11]: 0.3 | Mean number fecal pellets per pot [3, 12]: 18 | Mean number of damaged seeds per pot [3, 12]: 5.3 | Mean number of dead slugs per pot [3, 12]: 0.3 | Mean number of plants present per pot [3, 12]: 10.5 | Mean number fecal pellets per pot [3, 13]: 43 | Mean number of damaged seeds per pot [3, 13]: 19.3 | Mean number of dead slugs per pot [3, 13]: 0.3 | Mean number of plants present per pot [3, 13]: 16.5 | Mean number fecal pellets per pot [3, 14]: 47 | Mean number of damaged seeds per pot [3, 14]: 17.0 | Mean number of dead slugs per pot [3, 14]: 0.3 | Mean number of plants present per pot [3, 14]: 19.8 | Mean number fecal pellets per pot [3, 15]: 50 | Mean number of damaged seeds per pot [3, 15]: 17.8 | Mean number of dead slugs per pot [3, 15]: 0.5 | Mean number of plants present per pot [3, 15]: 21.3 | number of utilizable plants after 14 days ([3]; 4 ml formulated per kg seed): 19.8 | percentage of damaged seeds after 14 days ([3]; 4 ml formulated per kg seed): 13% | Mean number of damaged seeds per pot [3, 16]: 1.3 | Mean number of dead slugs per pot [3, 16]: 0 | Mean number fecal pellets per pot [3, 17]: 16 | Mean number of damaged seeds per pot [3, 17]: 3.3 | Mean number of dead slugs per pot [3, 17]: 0 | Mean number of plants present per pot [3, 17]: 7.8 | Mean number fecal pellets per pot [3, 18]: 34 | Mean number of damaged seeds per pot [3, 18]: 10.8 | Mean number of dead slugs per pot [3, 18]: 0.3 | Mean number of plants present per pot [3, 18]: 22.8 | Mean number fecal pellets per pot [3, 19]: 35 | Mean number of damaged seeds per pot [3, 19]: 4.8 | Mean number of dead slugs per pot [3, 19]: 0.3 | Mean number of plants present per pot [3, 19]: 30.3 | Mean number fecal pellets per pot [3, 20]: 36 | Mean number of damaged seeds per pot [3, 20]: 5.0 | Mean number of dead slugs per pot [3, 20]: 1.8 | Mean number of plants present per pot [3, 20]: 29.8 | number of utilizable plants after 14 days ([3]; 8 ml formulated per kg seed): 33.0 | percentage of damaged seeds after 14 days ([3]; 8 ml formulated per kg seed): 8% | Mean number of damaged seeds per pot [3, 21]: 1.8 | Mean number of dead slugs per pot [3, 21]: 0 | Mean number fecal pellets per pot [3, 22]: 6 | Mean number of damaged seeds per pot [3, 22]: 2.5 | Mean number of dead slugs per pot [3, 22]: 0.3 | Mean number of plants present per pot [3, 22]: 4.3 | Mean number fecal pellets per pot [3, 23]: 23 | Mean number of damaged seeds per pot [3, 23]: 4.5 | Mean number of dead slugs per pot [3, 23]: 0.5 | Mean number of plants present per pot [3, 23]: 32.0 | Mean number fecal pellets per pot [3, 24]: 27 | Mean number of damaged seeds per pot [3, 24]: 3.3 | Mean number of dead slugs per pot [3, 24]: 1.3 | Mean number of plants present per pot [3, 24]: 33.8 | Mean number fecal pellets per pot [3, 25]: 27 | Mean number of damaged seeds per pot [3, 25]: 3.3 | Mean number of dead slugs per pot [3, 25]: 1.5 | Mean number of plants present per pot [3, 25]: 34.8 | effect on the slug population ([3]; Example 1): little effect on the slug population | damaged seeds relative to the untreated pots ([3]; Example 1, 2, 4 and 8 ml per kg of seed, from day 3 after sowing): significantly less damaged seeds | plants present relative to the untreated pots ([3]; Example 1, 2, 4 or 8 ml per kg of seed, after 3 (only 2 ml), 7, 10 and 14 days): significantly more plants present | fecal pellets relative to the untreated seed ([3]; Example 1, at each dosage and at each observation): significantly less fecal pellets | protection / slug controlling effect (conclusion) ([3]; Example 1, winter wheat seed treatment, dosages tested): good protection to both seeds and plants
